ChEMBL document CHEMBL1201862, “PubChem BioAssay data set” (2004)
Calls of active or inactive are those of the source.

Columns and labels:
[1] = target: T1, Zinc finger protein mex-5 (Caenorhabditis elegans, UniProt Q9XUB2); experiment: MEX-5/TCR-2 RNA interaction inhibitors, dose response, biochemical, C. elegans, fluorescence polarization (AID 1960)
T1 sequence (Q9XUB2 whole entry): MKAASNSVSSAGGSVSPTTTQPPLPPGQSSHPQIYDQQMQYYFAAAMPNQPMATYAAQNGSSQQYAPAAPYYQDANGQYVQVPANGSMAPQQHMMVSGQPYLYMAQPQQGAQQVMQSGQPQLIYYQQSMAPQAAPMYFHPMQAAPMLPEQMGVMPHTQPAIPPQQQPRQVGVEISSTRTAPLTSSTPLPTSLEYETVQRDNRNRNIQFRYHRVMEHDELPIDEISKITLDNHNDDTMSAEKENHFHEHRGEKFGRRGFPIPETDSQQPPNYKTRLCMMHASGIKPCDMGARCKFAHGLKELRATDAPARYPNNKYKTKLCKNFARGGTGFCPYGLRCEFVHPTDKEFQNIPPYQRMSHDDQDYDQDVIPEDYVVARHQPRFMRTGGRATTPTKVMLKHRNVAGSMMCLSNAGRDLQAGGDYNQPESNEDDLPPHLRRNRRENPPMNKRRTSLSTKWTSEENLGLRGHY

[2] = target: T2, RNA-binding protein pos-1 (Caenorhabditis elegans, UniProt G5EF15); experiment: inhibitors of POS-1/mex-3 RNA binding, dose response, biochemical, fluorescence polarization (AID 1964);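 note: purified POS-1 fused to maltose binding protein made in E. coli; potency of compounds blocking POS-1 binding to fluorescent RNA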
T2 sequence (G5EF15 whole entry): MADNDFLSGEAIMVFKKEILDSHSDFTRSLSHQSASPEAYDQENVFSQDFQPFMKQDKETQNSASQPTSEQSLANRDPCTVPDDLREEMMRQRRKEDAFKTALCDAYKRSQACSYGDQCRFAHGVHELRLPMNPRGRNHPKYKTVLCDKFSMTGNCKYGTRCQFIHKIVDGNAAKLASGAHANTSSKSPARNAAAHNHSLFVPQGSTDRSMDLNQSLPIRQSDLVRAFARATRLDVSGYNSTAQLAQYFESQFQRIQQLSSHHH

Insulin-degrading enzyme = target: T3, Insulin-degrading enzyme (Homo sapiens, UniProt P14735); experiment: Dose Response: Fluorescence polarization-based cell-based high throughput dose response assay for inhibitors of insulin-degrading enzyme (IDE). [Related pubchem assays: 434962 (Primary screen (IDE inhibitors in singlicate)), 449730 (Counterscreen (Cytotoxicity in triplicate)), 435028 (Confirmation (IDE inhibitors in triplicate)), 434984 (Summary …; format: functional
T3 sequence (P14735 whole entry): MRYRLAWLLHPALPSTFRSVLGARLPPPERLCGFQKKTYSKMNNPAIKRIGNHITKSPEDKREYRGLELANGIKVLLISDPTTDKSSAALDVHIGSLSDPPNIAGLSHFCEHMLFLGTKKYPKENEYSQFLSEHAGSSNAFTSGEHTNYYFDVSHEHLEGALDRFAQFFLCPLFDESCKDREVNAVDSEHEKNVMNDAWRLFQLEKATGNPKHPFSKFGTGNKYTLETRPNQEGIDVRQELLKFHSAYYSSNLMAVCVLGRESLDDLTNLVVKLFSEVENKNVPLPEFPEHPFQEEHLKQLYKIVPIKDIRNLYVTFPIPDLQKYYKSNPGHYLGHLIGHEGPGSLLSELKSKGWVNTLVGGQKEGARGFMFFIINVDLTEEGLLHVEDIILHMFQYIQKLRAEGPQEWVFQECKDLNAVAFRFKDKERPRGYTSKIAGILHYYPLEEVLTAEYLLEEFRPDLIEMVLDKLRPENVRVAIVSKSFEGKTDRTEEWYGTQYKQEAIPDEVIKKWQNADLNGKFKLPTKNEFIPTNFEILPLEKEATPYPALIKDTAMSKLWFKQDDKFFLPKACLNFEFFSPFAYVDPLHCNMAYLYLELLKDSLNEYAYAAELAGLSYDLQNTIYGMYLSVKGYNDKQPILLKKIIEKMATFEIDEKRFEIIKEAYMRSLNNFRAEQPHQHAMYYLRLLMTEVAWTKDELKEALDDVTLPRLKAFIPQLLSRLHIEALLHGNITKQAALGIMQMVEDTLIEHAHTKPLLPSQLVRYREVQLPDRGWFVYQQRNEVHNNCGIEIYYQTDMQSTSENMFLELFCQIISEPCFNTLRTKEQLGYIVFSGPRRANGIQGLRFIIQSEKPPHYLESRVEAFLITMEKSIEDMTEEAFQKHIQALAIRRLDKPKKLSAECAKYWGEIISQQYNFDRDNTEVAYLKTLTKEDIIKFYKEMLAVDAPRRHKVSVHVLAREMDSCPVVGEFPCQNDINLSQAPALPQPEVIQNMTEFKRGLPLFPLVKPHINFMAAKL

[3] = Counterscreen for IDE inhibitors: Luminescence-based cell-based high throughput dose response assay to identify compounds that are cytotoxic to HEK cells. [Related pubchem assays: 434962 (Primary screen (IDE inhibitors in singlicate)), 449730 (Counterscreen (Cytotoxicity in triplicate)), 435028 (Confirmation (IDE inhibitors in triplicate)) …; format: functional; details: HEK293
Beta-galactosidase = Beta-galactosidase (Escherichia coli, UniProt Q8VNN2); experiment: beta-galactosidase enzyme inhibitors and activators, dose response, artefact control for CCR6 antagonist project, biochemical, E. coli enzyme, set 3 (AID 504712); format: functional
[4] = target: C-C chemokine receptor type 6 (Homo sapiens, UniProt P51684); experiment: CCR6 receptor antagonists, dose response, cell-based, luminescent beta-arrestin readout (AID 504728); format: functional
[5] = target: T4, Alkaline phosphatase, tissue-nonspecific isozyme (Homo sapiens, UniProt P05186)
T4 sequence (P05186 whole entry): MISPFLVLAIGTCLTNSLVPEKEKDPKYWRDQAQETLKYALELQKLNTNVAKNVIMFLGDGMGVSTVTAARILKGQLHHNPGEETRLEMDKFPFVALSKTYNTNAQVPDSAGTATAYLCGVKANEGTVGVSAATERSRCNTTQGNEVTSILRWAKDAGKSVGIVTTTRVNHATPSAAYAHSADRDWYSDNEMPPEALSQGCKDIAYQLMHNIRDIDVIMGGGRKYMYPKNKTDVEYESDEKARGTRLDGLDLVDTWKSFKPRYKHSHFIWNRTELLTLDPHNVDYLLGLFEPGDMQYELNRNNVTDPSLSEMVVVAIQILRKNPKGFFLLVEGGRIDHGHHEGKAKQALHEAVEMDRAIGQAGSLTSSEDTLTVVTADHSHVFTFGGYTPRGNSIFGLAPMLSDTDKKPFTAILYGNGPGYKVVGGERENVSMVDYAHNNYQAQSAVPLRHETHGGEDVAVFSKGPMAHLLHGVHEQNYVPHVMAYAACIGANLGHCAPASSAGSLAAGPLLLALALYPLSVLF

[6] = target: T5, Oxysterols receptor LXR-beta (Homo sapiens, UniProt P55055); experiment: LXR agonists, Gal4 luciferase reporter, dose response, counter-screen for ssDAF-12 agonist project, cell-based, luminescence, HEK293, S. stercoralis campaign (AID 720737); format: functional; details: read-out: IC50 (the source's name)
T5 sequence (P55055 whole entry): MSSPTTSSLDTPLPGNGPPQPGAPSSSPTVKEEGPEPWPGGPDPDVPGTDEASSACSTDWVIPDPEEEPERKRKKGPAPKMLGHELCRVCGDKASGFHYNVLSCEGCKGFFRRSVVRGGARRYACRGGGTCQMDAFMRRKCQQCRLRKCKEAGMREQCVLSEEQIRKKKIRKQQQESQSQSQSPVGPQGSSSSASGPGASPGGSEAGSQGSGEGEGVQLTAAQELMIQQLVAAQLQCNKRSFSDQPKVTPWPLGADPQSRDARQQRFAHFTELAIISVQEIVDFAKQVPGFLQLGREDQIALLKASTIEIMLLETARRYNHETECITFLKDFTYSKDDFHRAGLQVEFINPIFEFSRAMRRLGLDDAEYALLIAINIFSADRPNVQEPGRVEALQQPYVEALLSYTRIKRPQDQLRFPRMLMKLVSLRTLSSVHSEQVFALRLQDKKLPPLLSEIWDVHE

[7] = target: T5, Oxysterols receptor LXR-beta; format: functional, cell-based
[8] = Luminescence-based cell-based high throughput dose response assay to identify activators of the DAF-12 from the parasite S. stercoralis (ssDAF-12).; format: functional
X-box-binding protein 1 = X-box-binding protein 1 (Homo sapiens, UniProt P17861); format: functional, Cricetulus griseus;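 note: confirmatory dose-response counter-screen serving a CHOP assay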
[9] = growth suppression of PTEN-null colon cells, dose response, cell-based, HCT116 PTEN knockout (AID 1047); format: functional;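 note: HCT116 colon tumor cells with PTEN knocked out; cells exposed to compound for 60 hours before readout; potency for loss of cell viability measured by luminescence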
[10] = growth suppression of beta-catenin-knockout colon cells, dose response, cell-based, HCT116, human colon tumor (AID 1045); format: functional;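 note: HCT116 colon tumor cells with beta catenin knocked out; cells exposed to compound for 60 hours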
[11] = target: Voltage-dependent T-type calcium channel subunit alpha-1H (Homo sapiens, UniProt O95180); format: functional;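 note: channel activity triggered by adding a high calcium stimulation buffer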
[12] = target: T6, Mannose-6-phosphate isomerase (Homo sapiens, UniProt P34949); experiment: human PMI inhibitors, high substrate, primary screen, biochemical, fluorescence intensity, high mannose 6-phosphate (AID 1220)
T6 sequence (P34949 whole entry): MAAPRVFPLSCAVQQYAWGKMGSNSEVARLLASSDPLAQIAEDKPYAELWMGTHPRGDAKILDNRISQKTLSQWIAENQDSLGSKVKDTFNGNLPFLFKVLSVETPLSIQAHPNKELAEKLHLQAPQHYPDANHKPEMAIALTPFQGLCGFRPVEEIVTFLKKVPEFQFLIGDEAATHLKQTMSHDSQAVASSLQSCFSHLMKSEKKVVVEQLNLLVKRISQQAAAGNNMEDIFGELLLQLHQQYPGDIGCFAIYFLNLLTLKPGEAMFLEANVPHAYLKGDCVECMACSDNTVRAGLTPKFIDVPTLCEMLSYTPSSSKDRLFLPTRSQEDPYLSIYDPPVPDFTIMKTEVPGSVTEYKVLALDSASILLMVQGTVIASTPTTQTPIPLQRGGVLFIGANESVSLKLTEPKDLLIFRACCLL

[13] = target: T7, Voltage-gated N-type calcium channel alpha-1B subunit/Amyloid beta A4 precursor protein-binding family A member 1 (Homo sapiens, UniProt Q00975+Q02410); experiment: disruptors of Mint-PDZ/N-type channel peptide interaction – biochemical, HTRF, set 2, SAR follow-up (AID 434980); format: functional
[14] = target: T7, Voltage-gated N-type calcium channel alpha-1B subunit/Amyloid beta A4 precursor protein-binding family A member 1; experiment: disruptors of Mint-PDZ/N-type channel peptide interaction – biochemical, HTRF, SAR follow-up (AID 2489); format: functional
[15] = target: Acyl-homoserine lactone acylase PvdQ (Pseudomonas aeruginosa (strain LESB58), UniProt Q9I194); experiment: P. aeruginosa PvdQ acylase inhibitors, dose response, biochemical, fluorescence, plate reader and imaging, cherry-picks (AID 493231)
[16] = HEK293 cell cytotoxicity, dose response, cytotoxicity control, plate reader, cherry-picked samples (AID 743446); format: functional, cell-based
[17] = HepG2 cell cytotoxicity, dose response, cytotoxicity control, plate reader, cherry-pick, antagonist series (AID 743416); format: functional, cell-based
[18] = LGR2 antagonists, dose response, cell-based, HEK293, CRE-luciferase reporter, cherry pick, set 2 (AID 743343); format: functional;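 note: transfected cells were stimulated with diluted bursicon conditioned medium after compound addition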
[19] = A549 cell cytotoxicity, dose response, cytotoxicity control, plate reader, cherry-pick, antagonist series (AID 743412); format: functional, cell-based
[20] = MC4R antagonists, dose response, counter-screen for LGR2 antagonist project, cell-based, plate reader, cherry pick (AID 743444); format: functional;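 note: transfected HEK 293 cells stimulated with alpha-MSH peptide; potency of inhibitors of the alpha-MSH evoked signal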
[21] = target: T8, Microphthalmia-associated transcription factor (Homo sapiens, UniProt O75030); experiment: TRPM1 promoter luciferase signal decrease, dose response, MITF inhibitor project, cell-based, SK-MEL-5, cherry-picked, set 3 (AID 493073); format: functional
T8 sequence (O75030 whole entry): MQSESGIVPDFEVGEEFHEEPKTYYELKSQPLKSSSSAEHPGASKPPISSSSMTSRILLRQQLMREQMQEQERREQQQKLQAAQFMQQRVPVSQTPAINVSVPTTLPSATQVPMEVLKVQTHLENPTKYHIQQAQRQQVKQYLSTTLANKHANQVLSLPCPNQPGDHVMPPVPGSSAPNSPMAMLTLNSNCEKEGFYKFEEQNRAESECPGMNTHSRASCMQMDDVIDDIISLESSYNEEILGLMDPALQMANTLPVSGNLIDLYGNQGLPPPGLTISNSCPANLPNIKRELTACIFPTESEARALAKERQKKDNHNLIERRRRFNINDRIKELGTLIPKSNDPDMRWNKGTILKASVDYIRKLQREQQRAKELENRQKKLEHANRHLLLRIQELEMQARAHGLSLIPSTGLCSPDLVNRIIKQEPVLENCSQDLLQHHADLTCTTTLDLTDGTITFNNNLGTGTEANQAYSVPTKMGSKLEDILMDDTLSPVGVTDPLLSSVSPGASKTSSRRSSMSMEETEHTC

Beta-galactosidase, sequence (Q8VNN2 whole entry): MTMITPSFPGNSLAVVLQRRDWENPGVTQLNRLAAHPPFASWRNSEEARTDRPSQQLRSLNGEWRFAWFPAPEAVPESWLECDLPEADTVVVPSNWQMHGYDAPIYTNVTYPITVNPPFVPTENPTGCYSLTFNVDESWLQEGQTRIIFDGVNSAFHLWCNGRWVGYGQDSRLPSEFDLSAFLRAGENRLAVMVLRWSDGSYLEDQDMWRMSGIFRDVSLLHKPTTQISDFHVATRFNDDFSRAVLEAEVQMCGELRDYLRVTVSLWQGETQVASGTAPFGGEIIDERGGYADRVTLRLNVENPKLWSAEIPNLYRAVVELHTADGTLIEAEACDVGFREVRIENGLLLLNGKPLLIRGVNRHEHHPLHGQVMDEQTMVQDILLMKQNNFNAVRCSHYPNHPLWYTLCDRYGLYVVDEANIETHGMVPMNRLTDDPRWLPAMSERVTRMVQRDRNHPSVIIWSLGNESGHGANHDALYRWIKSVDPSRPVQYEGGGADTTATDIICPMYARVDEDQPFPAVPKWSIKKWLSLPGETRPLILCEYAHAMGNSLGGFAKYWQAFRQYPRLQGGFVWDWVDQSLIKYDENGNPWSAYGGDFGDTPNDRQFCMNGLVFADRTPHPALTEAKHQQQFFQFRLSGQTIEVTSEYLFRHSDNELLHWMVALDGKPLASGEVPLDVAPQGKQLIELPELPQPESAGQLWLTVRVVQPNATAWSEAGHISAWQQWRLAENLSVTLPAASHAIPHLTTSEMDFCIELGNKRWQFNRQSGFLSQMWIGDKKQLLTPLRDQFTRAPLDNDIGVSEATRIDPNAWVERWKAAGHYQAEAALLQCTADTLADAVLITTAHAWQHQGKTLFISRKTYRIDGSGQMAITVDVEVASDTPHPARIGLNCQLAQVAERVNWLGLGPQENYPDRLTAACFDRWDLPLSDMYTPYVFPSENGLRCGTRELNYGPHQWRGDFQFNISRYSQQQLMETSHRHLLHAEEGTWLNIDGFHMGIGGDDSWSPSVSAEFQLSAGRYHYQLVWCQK
T7 sequence (Q00975 whole entry): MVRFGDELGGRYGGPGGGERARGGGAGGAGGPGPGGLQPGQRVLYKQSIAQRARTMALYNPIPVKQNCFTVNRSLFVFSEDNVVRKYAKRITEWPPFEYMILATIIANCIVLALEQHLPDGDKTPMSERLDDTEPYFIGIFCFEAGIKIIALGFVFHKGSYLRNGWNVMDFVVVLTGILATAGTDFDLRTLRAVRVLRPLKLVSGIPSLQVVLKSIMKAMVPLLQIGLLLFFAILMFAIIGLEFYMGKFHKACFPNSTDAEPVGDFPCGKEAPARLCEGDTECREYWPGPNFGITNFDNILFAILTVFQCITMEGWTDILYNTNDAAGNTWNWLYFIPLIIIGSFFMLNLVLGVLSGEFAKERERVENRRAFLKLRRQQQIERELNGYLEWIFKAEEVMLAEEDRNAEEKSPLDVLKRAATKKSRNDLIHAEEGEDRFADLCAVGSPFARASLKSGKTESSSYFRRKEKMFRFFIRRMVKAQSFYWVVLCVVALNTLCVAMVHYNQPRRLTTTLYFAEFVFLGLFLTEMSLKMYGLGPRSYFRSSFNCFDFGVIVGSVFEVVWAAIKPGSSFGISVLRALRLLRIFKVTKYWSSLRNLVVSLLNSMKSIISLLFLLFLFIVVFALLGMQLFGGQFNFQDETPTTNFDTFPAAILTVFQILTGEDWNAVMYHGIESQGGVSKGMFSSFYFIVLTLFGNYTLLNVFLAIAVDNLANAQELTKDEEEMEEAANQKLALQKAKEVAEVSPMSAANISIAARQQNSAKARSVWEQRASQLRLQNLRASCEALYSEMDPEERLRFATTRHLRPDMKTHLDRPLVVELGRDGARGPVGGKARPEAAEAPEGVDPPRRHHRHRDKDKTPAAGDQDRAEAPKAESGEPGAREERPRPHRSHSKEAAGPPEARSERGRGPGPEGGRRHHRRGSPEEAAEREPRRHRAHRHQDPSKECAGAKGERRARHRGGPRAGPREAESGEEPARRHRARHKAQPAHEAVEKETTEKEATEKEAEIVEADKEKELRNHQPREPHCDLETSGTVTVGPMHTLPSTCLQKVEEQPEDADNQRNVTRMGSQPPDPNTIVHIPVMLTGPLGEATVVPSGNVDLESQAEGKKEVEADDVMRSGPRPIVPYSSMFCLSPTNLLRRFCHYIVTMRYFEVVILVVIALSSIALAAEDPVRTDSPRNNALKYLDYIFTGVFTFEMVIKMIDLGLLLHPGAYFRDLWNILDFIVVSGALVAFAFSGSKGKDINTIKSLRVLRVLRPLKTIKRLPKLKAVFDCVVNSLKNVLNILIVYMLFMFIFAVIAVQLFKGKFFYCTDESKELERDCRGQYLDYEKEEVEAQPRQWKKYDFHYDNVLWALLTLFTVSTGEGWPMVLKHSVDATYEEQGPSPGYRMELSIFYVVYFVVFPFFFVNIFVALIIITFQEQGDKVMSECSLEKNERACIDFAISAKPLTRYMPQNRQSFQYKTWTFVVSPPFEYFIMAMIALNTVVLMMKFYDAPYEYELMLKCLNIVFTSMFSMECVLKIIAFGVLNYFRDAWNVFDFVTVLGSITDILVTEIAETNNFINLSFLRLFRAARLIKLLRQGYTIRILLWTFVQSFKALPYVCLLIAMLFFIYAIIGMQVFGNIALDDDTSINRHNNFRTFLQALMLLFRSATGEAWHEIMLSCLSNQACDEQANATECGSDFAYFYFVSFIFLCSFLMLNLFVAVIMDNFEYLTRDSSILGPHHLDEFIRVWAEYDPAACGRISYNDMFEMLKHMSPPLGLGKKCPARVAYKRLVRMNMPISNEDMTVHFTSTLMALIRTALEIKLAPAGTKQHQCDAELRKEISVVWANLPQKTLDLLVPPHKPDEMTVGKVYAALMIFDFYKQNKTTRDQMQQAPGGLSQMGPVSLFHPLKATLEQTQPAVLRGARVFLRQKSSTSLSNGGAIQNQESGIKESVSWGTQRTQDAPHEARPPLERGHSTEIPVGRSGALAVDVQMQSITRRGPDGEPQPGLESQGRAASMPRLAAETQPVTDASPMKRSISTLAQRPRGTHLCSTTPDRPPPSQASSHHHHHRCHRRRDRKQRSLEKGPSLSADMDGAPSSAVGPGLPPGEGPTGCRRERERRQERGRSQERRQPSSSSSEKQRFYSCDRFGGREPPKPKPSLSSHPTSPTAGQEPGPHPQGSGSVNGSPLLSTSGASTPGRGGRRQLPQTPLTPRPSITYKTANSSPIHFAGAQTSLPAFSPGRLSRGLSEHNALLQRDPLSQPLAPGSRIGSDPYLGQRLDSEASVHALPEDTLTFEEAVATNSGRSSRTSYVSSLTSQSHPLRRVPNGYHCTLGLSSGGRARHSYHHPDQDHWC
T7 sequence (Q02410 whole entry): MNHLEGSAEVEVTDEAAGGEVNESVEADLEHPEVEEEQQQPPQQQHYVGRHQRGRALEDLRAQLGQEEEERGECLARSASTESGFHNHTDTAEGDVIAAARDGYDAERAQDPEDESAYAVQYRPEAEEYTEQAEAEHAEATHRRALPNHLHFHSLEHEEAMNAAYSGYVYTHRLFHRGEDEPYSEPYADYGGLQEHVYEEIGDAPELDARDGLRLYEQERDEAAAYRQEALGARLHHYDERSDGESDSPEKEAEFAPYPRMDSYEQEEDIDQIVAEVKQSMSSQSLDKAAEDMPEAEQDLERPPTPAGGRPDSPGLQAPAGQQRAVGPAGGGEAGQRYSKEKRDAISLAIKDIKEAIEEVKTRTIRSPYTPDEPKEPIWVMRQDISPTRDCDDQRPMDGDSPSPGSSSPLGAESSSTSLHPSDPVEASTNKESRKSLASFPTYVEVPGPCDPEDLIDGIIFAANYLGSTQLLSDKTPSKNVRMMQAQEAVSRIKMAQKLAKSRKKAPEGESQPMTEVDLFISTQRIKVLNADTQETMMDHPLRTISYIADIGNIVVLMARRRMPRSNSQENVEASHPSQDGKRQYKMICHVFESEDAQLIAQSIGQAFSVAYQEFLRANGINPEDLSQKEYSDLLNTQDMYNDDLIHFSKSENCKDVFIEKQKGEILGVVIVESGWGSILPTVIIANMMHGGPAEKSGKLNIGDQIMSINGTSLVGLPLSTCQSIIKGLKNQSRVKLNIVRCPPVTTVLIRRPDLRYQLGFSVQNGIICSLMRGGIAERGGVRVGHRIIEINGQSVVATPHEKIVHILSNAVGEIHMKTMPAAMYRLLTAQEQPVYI
C-C chemokine receptor type 6, sequence (P51684 whole entry): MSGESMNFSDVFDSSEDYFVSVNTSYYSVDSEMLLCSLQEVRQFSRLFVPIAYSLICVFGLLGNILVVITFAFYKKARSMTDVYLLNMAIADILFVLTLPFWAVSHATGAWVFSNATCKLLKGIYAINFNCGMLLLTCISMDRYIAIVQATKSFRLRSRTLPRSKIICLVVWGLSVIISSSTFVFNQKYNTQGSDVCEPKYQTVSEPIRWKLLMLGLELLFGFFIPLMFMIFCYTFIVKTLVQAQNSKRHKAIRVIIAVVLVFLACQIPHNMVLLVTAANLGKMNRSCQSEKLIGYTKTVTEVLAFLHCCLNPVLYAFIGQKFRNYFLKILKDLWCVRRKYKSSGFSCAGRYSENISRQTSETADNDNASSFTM
X-box-binding protein 1, sequence (P17861 whole entry): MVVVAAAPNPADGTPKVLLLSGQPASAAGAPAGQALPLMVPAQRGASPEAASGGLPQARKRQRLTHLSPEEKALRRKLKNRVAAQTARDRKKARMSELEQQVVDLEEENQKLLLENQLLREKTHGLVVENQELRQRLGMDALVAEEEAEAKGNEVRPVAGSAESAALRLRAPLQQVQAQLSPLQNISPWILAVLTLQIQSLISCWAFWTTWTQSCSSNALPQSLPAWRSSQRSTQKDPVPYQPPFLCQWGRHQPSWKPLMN

## O=C(C1=NN(c2ccccc2)C2C(=O)N(c3ccccc3Cl)C(=O)C12)c1ccccc1 (stereo not given)
[1]
  EC50: > 300 µM (inconclusive)
[2]
  EC50: > 300 µM (not active)
Insulin-degrading enzyme
  IC50: > 6.21 µM (active)
[3]
  IC50: > 55.7 µM (not active)

## N#CC(=C1C=CC(=NO)C(Cl)=C1)c1ccc(Cl)cc1
Beta-galactosidase
  IC50: > 66.6 µM (inactive)
[4]
  IC50: > 66.6 µM (inactive)

## Oc1cccc(/C=N/Nc2cccc3cccnc23)c1
[5]
  EC50: > 100 µM (not active)
[6]
  EC50: > 67.5 µM (inactive)
cells
  EC50: > 67.5 µM (inactive)
[7]
  EC50: > 67.5 µM (inactive)
[8]
  IC50: > 67.5 µM (inactive)

## COc1ccc(C(CCNCc2ccc(F)cc2)c2ccc(F)cc2)cc1 (stereo not given)
X-box-binding protein 1
  Absolute IC50 (XBP1): 10 µM
[9]
  EC50: 9.32 µM (active)
[10]
  EC50: 7.18 µM (active)

## CCOc1ccccc1OCCOc1ccccc1OC(C)C
[11]
  EC50: 5.52 µM (active)

## COc1ccc(OCC(=O)Nc2ccc3oc(-c4ccncc4)nc3c2)cc1
[5]
  EC50: > 100 µM (not active)

## C/C(=N\O)C(=O)C(CN1CCCCC1)CN1CCCCC1
[12]
  IC50: > 50 µM (not active)
Beta-galactosidase
  IC50: > 66.6 µM (inactive)
[4]
  IC50: > 66.6 µM (inactive)

## O=C(NCCCc1ccccc1)c1cc(-c2ccco2)nc2ccccc12
[13]
  IC50: 44.7 µM (active)
[14]
  IC50: > 56.8 µM (inactive)

## Cc1cc2c(cc1C)CSC(c1ccccc1O)SC2
X-box-binding protein 1
  Absolute IC50 (XBP1): < 10 µM

## Cc1ccc(C(C#N)c2ccc(Cl)nn2)cc1 (stereo not given)
[15]
  AC50: 1.6 µM (active)

## CCOc1ccc(NC(=O)c2ccccn2)cc1
[16]
  AC50: > 52 µM (inactive)
[17]
  AC50: > 52 µM (inactive)
[18]
  AC50: 0.999 µM (active)
[19]
  AC50: 43.4 µM (active)
[15]
  AC50: > 100 µM (inactive)
[20]
  AC50: 1.23 µM (active)
[21]
  AC50: 4.4 µM (active)
